Measurements: ChEMBL document CHEMBL1275362, “Synthesis of new antifungal peptides selective against Cryptococcus neoformans” (2010)
≈ marks a conversion by molar mass, not a printed value. Starred links: 1 amine or outer side, 2 acyl side, 3 side chain; linkers in the order of their positions; H or OH if unused. Non-standard residues stand in square brackets, D forms with d. Residues, ends and D or L forms follow the SMILES beside them. X1 = O=C([C@H](CC1=NC=NC1)N[*:1])[*:2]

Legend:
Type in all cases: functional
Nakaseomyces glabratus = assay: Antifungal activity against Candida glabrata after 48 hrs by broth microdilution method
Candida parapsilosis = assay: Antifungal activity against Candida parapsilosis after 48 hrs by broth microdilution method; settings: Lodderomyces parapsilosis
Candida tropicalis = assay: Antifungal activity against Candida tropicalis after 48 hrs by broth microdilution method
Cryptococcus neoformans [1] = assay: Antifungal activity against Cryptococcus neoformans ATCC 52817 after 72 hrs by broth microdilution method; settings: ATCC 52817, 72 h
Cryptococcus neoformans [2] = assay: Antifungal activity against Cryptococcus neoformans H99 after 72 hrs by broth microdilution method; settings: H99, 72 h
Pichia kudriavzevii = assay: Antifungal activity against Candida krusei after 48 hrs by broth microdilution method
Candida albicans = assay: Antifungal activity against Candida albicans after 48 hrs by broth microdilution method

Compound | MIC (Nakaseomyces glabratus) | MIC90 (Nakaseomyces glabratus) | MIC (Candida parapsilosis) | MIC90 (Candida parapsilosis) | MIC (Candida tropicalis) | MIC90 (Candida tropicalis) | MIC (Cryptococcus neoformans [1]) | MIC (Cryptococcus neoformans [2]) | MIC90 (Cryptococcus neoformans [2]) | MIC (Pichia kudriavzevii) | MIC90 (Pichia kudriavzevii) | MIC (Candida albicans) | MIC90 (Candida albicans)
N=C(N)NCCC[C@@H]1NC(=O)[C@H](CCCNC(=N)N)NC(=O)[C@H](Cc2c[nH]c3ccccc23)NC(=O)[C@H](Cc2c[nH]c3ccccc23)NC(=O)[C@H](CCCNC(=N)N)NC(=O)[C@H](Cc2ccccc2)NC(=O)[C@H](Cc2c[nH]cn2)NC(=O)CNC(=O)[C@H](Cc2c[nH]cn2)NC1=O (cyclo(FRWWRRHGH)) | 64 µg/mL (≈ 48.5 µM) | 256 µg/mL (≈ 194 µM) | 32 µg/mL (≈ 24.3 µM) | 128 µg/mL (≈ 97 µM) | 32 µg/mL (≈ 24.3 µM) | 128 µg/mL (≈ 97 µM) | 4 µg/mL (≈ 3.03 µM) | 2 µg/mL (≈ 1.52 µM) | 4 µg/mL (≈ 3.03 µM) | 32 µg/mL (≈ 24.3 µM) | 64 µg/mL (≈ 48.5 µM) | 32 µg/mL (≈ 24.3 µM) | 128 µg/mL (≈ 97 µM)
N=C(N)NCCC[C@@H]1NC(=O)[C@H](CCCNC(=N)N)NC(=O)[C@H](Cc2ccccc2)NC(=O)[C@H](CCCNC(=N)N)NC(=O)[C@H](Cc2c[nH]c3ccccc23)NC(=O)[C@H](Cc2c[nH]c3ccccc23)NC1=O (cyclo(RRWWRF)) | 128 µg/mL (≈ 130 µM) | 512 µg/mL (≈ 518 µM) | 32 µg/mL (≈ 32.4 µM) | 128 µg/mL (≈ 130 µM) | 128 µg/mL (≈ 130 µM) | 512 µg/mL (≈ 518 µM) | 8 µg/mL (≈ 8.1 µM) | 4 µg/mL (≈ 4.05 µM) | 64 µg/mL (≈ 64.8 µM) | 32 µg/mL (≈ 32.4 µM) | 512 µg/mL (≈ 518 µM) | 128 µg/mL (≈ 130 µM) | 512 µg/mL (≈ 518 µM)
OC(Cn1cncn1)(Cn1cncn1)c1ccc(F)cc1F [FLUCONAZOLE] | 4 µg/mL (≈ 13.1 µM) | 64 µg/mL (≈ 209 µM) | 1 µg/mL (≈ 3.27 µM) | 2 µg/mL (≈ 6.53 µM) | 0.5 µg/mL (≈ 1.63 µM) | 2 µg/mL (≈ 6.53 µM) | – | 2 µg/mL (≈ 6.53 µM) | 4 µg/mL (≈ 13.1 µM) | 16 µg/mL (≈ 52.2 µM) | 64 µg/mL (≈ 209 µM) | 0.125 µg/mL (≈ 0.408 µM) | 0.25 µg/mL (≈ 0.816 µM)
N=C(N)NCCC[C@H](NC(=O)[C@H](Cc1c[nH]c2ccccc12)NC(=O)[C@H](Cc1c[nH]c2ccccc12)NC(=O)[C@H](CCCNC(=N)N)NC(=O)[C@H](CCCNC(=N)N)NC(=O)[C@H](CC1=NC=NC1)NC(=O)CNC(=O)[C@@H](N)Cc1c[nH]cn1)C(=O)N[C@@H](Cc1ccccc1)C(=O)O (H-HG[X1]RRWWRF-OH) | 256 µg/mL (≈ 191 µM) | > 512 µg/mL | > 512 µg/mL | 512 µg/mL (≈ 383 µM) | 256 µg/mL (≈ 191 µM) | > 512 µg/mL | 8 µg/mL (≈ 5.98 µM) | 8 µg/mL (≈ 5.98 µM) | 16 µg/mL (≈ 12 µM) | 256 µg/mL (≈ 191 µM) | 512 µg/mL (≈ 383 µM) | 256 µg/mL (≈ 191 µM) | > 512 µg/mL
C[C@@H]1[C@H](O)[C@@H](C)/C=C/C=C/C=C/C=C/C=C/C=C/C=C/[C@H](O[C@@H]2O[C@H](C)[C@@H](O)[C@H](N)[C@@H]2O)C[C@@H]2O[C@](O)(C[C@@H](O)C[C@@H](O)[C@H](O)CC[C@@H](O)C[C@@H](O)CC(=O)O[C@H]1C)C[C@H](O)[C@H]2C(=O)O [AMPHOTERICIN B] | 0.03 µg/mL (≈ 0.0325 µM) | 0.125 µg/mL (≈ 0.135 µM) | 0.06 µg/mL (≈ 0.0649 µM) | 0.06 µg/mL (≈ 0.0649 µM) | 0.03 µg/mL (≈ 0.0325 µM) | 0.06 µg/mL (≈ 0.0649 µM) | – | 0.125 µg/mL (≈ 0.135 µM) | 0.25 µg/mL (≈ 0.271 µM) | 0.03 µg/mL (≈ 0.0325 µM) | 0.06 µg/mL (≈ 0.0649 µM) | 0.03 µg/mL (≈ 0.0325 µM) | 0.125 µg/mL (≈ 0.135 µM)
H-RRWWRF-OH | 128 µg/mL | 512 µg/mL | 64 µg/mL | 128 µg/mL | 128 µg/mL | 512 µg/mL | 16 µg/mL | 16 µg/mL | 64 µg/mL | 128 µg/mL | 512 µg/mL | 128 µg/mL | 512 µg/mL
H-HRRWWRF-OH | 128 µg/mL | 512 µg/mL | 128 µg/mL | 256 µg/mL | 128 µg/mL | 512 µg/mL | 16 µg/mL | 8 µg/mL | 16 µg/mL | 128 µg/mL | 256 µg/mL | 128 µg/mL | 512 µg/mL
N=C(N)NCCC[C@@H]1NC(=O)[C@H](CCCNC(=N)N)NC(=O)[C@H](Cc2c[nH]c3ccccc23)NC(=O)[C@H](Cc2c[nH]c3ccccc23)NC(=O)[C@H](CCCNC(=N)N)NC(=O)[C@H](Cc2ccccc2)NC(=O)[C@H](Cc2c[nH]cn2)NC1=O (cyclo(FRWWRRH)) | 64 µg/mL (≈ 56.9 µM) | 256 µg/mL (≈ 227 µM) | 64 µg/mL (≈ 56.9 µM) | 128 µg/mL (≈ 114 µM) | 64 µg/mL (≈ 56.9 µM) | 256 µg/mL (≈ 227 µM) | 8 µg/mL (≈ 7.11 µM) | 4 µg/mL (≈ 3.55 µM) | 8 µg/mL (≈ 7.11 µM) | 32 µg/mL (≈ 28.4 µM) | 64 µg/mL (≈ 56.9 µM) | 64 µg/mL (≈ 56.9 µM) | 256 µg/mL (≈ 227 µM)
